Values quoted from earlier work, collected in US11701406B2 (The Board of Trustees of the Leland Stanford Junior …, priority 2017, dated 2023).

Biological target: T1, NEDD8 activating enzyme (NAE) (Homo sapiens, UniProt Q8TBC4)
T1 sequence (Q8TBC4 2-463 limits assumed): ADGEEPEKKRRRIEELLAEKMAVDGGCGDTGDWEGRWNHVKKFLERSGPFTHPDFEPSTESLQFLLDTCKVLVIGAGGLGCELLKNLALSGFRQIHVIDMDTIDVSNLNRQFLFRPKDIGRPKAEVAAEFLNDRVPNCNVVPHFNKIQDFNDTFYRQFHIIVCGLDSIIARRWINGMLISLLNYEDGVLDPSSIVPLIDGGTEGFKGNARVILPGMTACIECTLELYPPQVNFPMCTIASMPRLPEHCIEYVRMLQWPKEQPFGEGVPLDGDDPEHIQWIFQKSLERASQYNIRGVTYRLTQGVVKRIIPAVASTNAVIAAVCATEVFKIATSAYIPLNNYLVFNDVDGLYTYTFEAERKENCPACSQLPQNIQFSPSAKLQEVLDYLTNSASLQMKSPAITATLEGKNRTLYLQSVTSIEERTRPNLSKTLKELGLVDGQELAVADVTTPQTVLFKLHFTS
T1 sequence (Q13564 2-534 partner limits assumed): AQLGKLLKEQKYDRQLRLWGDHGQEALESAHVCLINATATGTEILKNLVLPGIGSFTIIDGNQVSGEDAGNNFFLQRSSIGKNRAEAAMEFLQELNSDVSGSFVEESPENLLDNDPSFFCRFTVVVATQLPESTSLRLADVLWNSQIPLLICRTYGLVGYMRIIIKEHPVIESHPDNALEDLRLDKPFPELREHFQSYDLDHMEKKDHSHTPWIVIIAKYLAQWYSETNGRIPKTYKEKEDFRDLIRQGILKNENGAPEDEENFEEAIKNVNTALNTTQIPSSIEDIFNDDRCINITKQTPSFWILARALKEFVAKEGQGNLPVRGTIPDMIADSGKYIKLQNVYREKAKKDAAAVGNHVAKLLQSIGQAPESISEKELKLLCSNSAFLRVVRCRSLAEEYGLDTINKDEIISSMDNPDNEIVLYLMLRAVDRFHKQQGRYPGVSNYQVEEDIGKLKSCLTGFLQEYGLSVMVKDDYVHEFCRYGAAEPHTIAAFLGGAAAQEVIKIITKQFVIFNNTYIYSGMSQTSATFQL
Conditions: read-out: IC50 (Activity, Inhibitors of NAE)

Row | Compound | IC50 [nM]
1 | MLN7243 | 1
2 | CCN1CCN(C(=O)N[C@@H](C(=O)N[C@@H]2C(=O)N3C2SC(C)(C)[C@@H]3C(=O)O)c2ccccc2)C(=O)C1=O (stereo partly drawn) [Piperacillin] | 1000
3 | Nc1ccc(SCC(=O)Nc2ccc3nc(NC(=O)c4ccc(C(F)(F)F)cc4)sc3c2)cc1 | 100
4 | Clc1ccc(CCNC2CCN(Cc3ccccc3)CC2)c(Cl)c1 [M22] | 9000

Next, values leading:

Row | IC50 [nM] | Compound
5 | 20 | CN1CCOc2c1ccc(F)c2C#Cc1cn([C@@H]2C[C@@H](CCS(N)(=O)=O)[C@@H](O)[C@H]2O)c2ncnc(N)c12 [TAS 2]
6 | 1 | CN1CCOc2c1ccc(F)c2C#Cc1cn([C@@H]2O[C@@H](CCS(N)(=O)=O)[C@@H](O)[C@H]2O)c2ncnc(N)c12 [TAS 1]
